Results published in patent US12145923B2, “Tetrahydroisoquinoline compound, preparation method therefor, pharmaceutical composition containing same, and use thereof” (SHANGHAI INSTITUTE OF MATERIA MEDICA, CHINESE ACADEMY OF …, priority 2018, dated 2024).
Several values for one entry are separate records, joined by “and”; a condition that tells them apart may be missing. Equal values may be shown once. Read-outs that look alike come from different tables or passages of the source.

Columns and labels:
[1] = Cytotoxicity on RAW 264.7 cells (CCK-8 method); type: cell-based, mouse; details: mouse, RAW 264.7 cells; drug concentration required to cause median cytotoxicity, RAW 264.7
RAW 264.7 cells = assay: Cytotoxicity on RAW 264.7 cells (CCK-8 method); type: cell-based, mouse
[2] = molecular target: Human PDE4D catalytic domain (Homo sapiens (Human), UniProt Q08499); assay: Scintillation Proximity Assay (SPA), inhibition of PDE4D catalytic domain activity; type: biochemical; details: for inhibition at 1 µM: Compound concentration: 1 μM, read-out: PDE4D enzyme activity inhibition rate %; for IC50: PDE4D, unit given as mM, read-out: IC50
Description: The scintillation Proximity Assay (SPA) method was used to determine the inhibitory effect of compounds on the activity of PDE4D catalytic domain. Human PDE4D catalytic domain protein was obtained by expression and purification in E. coli. […] [^3H]-cAMP, scintillation beads (RPNQO150, Perkin Elmer), and 96-well scintillation microplates (Isoplate-96, Perkin Elmer) were purchased from Perkin Elmer Company.
Finally, 10 μl [^3H]-cAMP (0.005 μCi/μl) was added and incubated for 30 min at 30° C. in a water bath. 50 μl SPA beads was added to quench the reaction, shaked appropriately, and stood for 20 minutes. A microplate scintillation counter was used.

TNF-α secretion in PBMC = assay: Inhibition of LPS-stimulated TNF-α secretion in PBMC (ELISA); type: cell-based; details: Homo sapiens, TNF-α secretion in PBMC; for inhibition at 10 µM / inhibition at 1 µM: read-out: Inhibition rate %; for IC50: read-out: IC50
[3] = tested on: tumor necrosis factor-α secretion in RAW 264.7 cells; assay: Inhibition of LPS-stimulated tumor necrosis factor-α secretion in RAW 264.7 cells (ELISA); type: cell-based, mouse; details: Mus musculus; for inhibition at 0.5 µM / inhibition at 5 µM / inhibition at 50 µM: RAW264.7, 4 h, read-out: Tumor necrosis factor-α inhibition rate/%; for inhibition at 0.5 µM: RAW 264.7, 0.5 μM; for inhibition at 5 µM: RAW 264.7, 5 μM; for inhibition at 50 µM: RAW 264.7, 50 μM
[4] = tested on: acute inflammation model of mouse back air sac; assay: Acute inflammation model of mouse back air sac (carrageenan); type: in vivo; details: oral gavage 5 mg/kg
Description: On the first day of the experiment, mice were subcutaneously injected with 3 ml of air on the back, and subcutaneously injected with 1.5 ml of air on the back on day 3, and subcutaneously injected with 1 ml of 2% carrageenan (Sigma-Aldrich, St. Louis, MO, USA) on the back on day 6 for sensitization. 4 hours after sensitization, secretion in the air sac was lavaged with phosphate buffer solution. The lavage fluid was used for white blood cell count and inflammatory factor detection. […] Tumor necrosis factor-α and interleukin-6 detection kits were purchased from BD Pharmingen (San Diego, CA, USA).

Rat pharmacokinetic test = type: in vivo
Description: Six male healthy rats weighing 150-200 g were randomly divided into 2 groups (n=3). Compounds 14, 16, 17, 18, 22 and 29 of the present invention were administered by gavage and intravenous injection, respectively, at a administration volume of 10 mL/kg. The drug was formulated with DMSO/Tween 80/saline solution (5:5:90, v/v/v). The rats were fasted for 12 h before testing, water ad lib, and uniformly feeded 2 h after administration.
gavage administration: 0.25, 0.5, 1.0, 2.0, 4.0, 6.0, 8.0 and 24 h after administration:
intravenous administration: 5 min, 0.25, 0.5, 1.0, 2.0, 4.0, 6.0, 8.0 and 24 h after administration;
0.3 mL of venous blood was collected at the above time points via the rat eye vein venous plexus, placed in heparinized test tube, centrifuged at 11000 rpm for 5 min. Plasma was separated and frozed in a −20° C. refrigerator.
The concentration of compounds in rat plasma was determined by LC/MS/MS. The pharmacokinetic parameters after administration were calculated by a non-compartmental model of DAS 3.0 software.

[5] = male, plasma, intravenous injection, 10 mg/kg
[6] = male, plasma, po, gavage, 20 mg/kg

Sequence of Human PDE4D catalytic domain (Q08499 386-715): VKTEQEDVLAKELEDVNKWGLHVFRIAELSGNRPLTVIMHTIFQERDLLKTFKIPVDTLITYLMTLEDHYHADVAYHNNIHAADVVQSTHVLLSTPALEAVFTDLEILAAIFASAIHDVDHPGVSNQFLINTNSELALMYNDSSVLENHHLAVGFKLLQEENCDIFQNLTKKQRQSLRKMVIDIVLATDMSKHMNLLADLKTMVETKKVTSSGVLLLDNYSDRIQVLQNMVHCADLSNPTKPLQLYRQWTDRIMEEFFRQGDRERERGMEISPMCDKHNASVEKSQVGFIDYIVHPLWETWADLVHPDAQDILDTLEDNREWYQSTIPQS

Row | SMILES | inhibition at 1 µM [2] [%] | Cell survival rate/% (RAW 264.7 cells; RAW 264.7, 0.5 μM) | Cell survival rate/% (RAW 264.7 cells; RAW 264.7, 5 μM) | Cell survival rate/% (RAW 264.7 cells; RAW 264.7, 50 μM) | inhibition at 10 µM (TNF-α secretion in PBMC) [%] | inhibition at 0.5 µM [3] [%] | inhibition at 5 µM [3] [%] | inhibition at 50 µM [3] [%] | inhibition at 1 µM (TNF-α secretion in PBMC) [%] | further results
1 | COc1cc2c(cc1OC)[C@H](CCc1c[nH]c3ccccc13)N(C=O)CC2 [(S)-A1, (S)-1-(2-(1H-indol-3-yl)ethyl)-6,7-dimethoxy-3,4-dihydroisoquinoline-2(1H)-formaldehyde] | – | 112.3% and 103% | 126.4% and 100.2% | 88.8% and 102% | – | – | – | – | – | CC50 at 4 h [1]: > 50 µM
2 | COc1cc2c(cc1OC)[C@H](CCc1c[nH]c3cc(F)ccc13)N(C=O)CC2 [(S)-C6, (S)-1-(2-(6-fluoro-1H-indol-3-yl)ethyl)-6,7-dimethoxy-3,4-dihydroisoquinoline-2(1H)-formaldehyde] | – | 108.6% | 118.4% | 93.7% | – | – | – | – | – | CC50 at 4 h [1]: > 50 µM
3 | CCOc1cc([C@@H](CS(C)(=O)=O)N2C(=O)c3cccc(NC(C)=O)c3C2=O)ccc1OC [Apremilast, reference compound] | – | – | – | – | – | – | – | – | – | CC50 at 4 h [1]: > 10 µM; IC50 ([3]; RAW264.7, RAW 264.7): 4.2 µM
4 | COc1cc2c(cc1OC)[C@H](CCc1c[nH]c3cc(C)ccc13)N(C=O)CC2 [(S)-C5, (S)-6,7-dimethoxy-1-(2-(6-methyl-1H-indol-3-yl)ethyl)-3,4-dihydroisoquinoline-2(1H)-formaldehyde] | – | 98% | 109.4% | 93.4% | – | – | – | – | – | secretion level of interleukin-6 in lavage [4]: reduce; secretion level of tumor necrosis factor-α in lavage [4]: reduce; inflammatory response ([4]; 24 h and 1 h before sensitization): significantly reduce
5 | COc1cc2c(cc1OC1CCCC1)[C@H](CCc1c[nH]c3cc(C)ccc13)N(C=O)CC2 [(S)-C3, (S)-7-(cyclopentyloxy)-6-methoxy-1-(2-(6-methyl-1H-indol-3-yl)ethyl)-3,4-dihydroisoquinoline-2(1H)-formaldehyde] | 24.1 | 88.2% | 100% | 89.2% | 79.2 | 6.3 | 6 | 95.1 | 12.1 | –
6 | COCC(=O)N1CCc2cc(OC)c(OC)cc2[C@@H]1CCc1c[nH]c2ccccc12 [(S)-B11, (S)-1-(1-(2-(1H-indol-3-yl)ethyl)-6,7-dimethoxy-3,4-dihydroisoquinoline-2(1H)-yl)-2-methoxyethane-1-one] | 82.9 | 110.9% | 111.2% | 102.2% | 90.7 | -7.8 | 1.1 | 51.3 | 60.1 | IC50 [2]: 0.00019 mM; IC50 (TNF-α secretion in PBMC): 0.24 µM
7 | COc1cc2c(cc1OC)[C@H](CCc1c[nH]c3ccccc13)N(C(=O)C(F)(F)F)CC2 [(S)-B10, (S)-1-(1-(2-(1H-indol-3-yl)ethyl)-6,7-dimethoxy-3,4-dihydroisoquinoline-2(1H)-yl)-2,2,2-trifluoroethane-1-one] | 29.5 | 89.2% | 84.9% | 93.8% | 59.6 | -3 | -27.9 | 33.7 | 19.9 | –
8 | CCOc1cc2c(cc1OC)CCN(C=O)[C@H]2CCc1c[nH]c2cc(C)ccc12 [(S)-C7, (S)-7-ethoxy-6-methoxy-1-(2-(6-methyl-1H-indol-3-yl)ethyl)-3,4-dihydroisoquinoline-2(1H)-formaldehyde] | – | 71.3% | 93.4% | 96.1% | – | – | – | – | – | CC50 at 4 h [1]: > 50 µM; AUC0-t (Rat pharmacokinetic test; gavage, 20 mg/kg): 9232.3 ng·h/mL; AUC0-t (Rat pharmacokinetic test; intravenous injection, 10 mg/kg): 6761.8 ng·h/mL; AUC(0-inf) (Rat pharmacokinetic test; [5]): 6760 ng·h/mL; MRT (Rat pharmacokinetic test; [5]): 0.9 h; half-life (Rat pharmacokinetic test; [5]): 12 min; Vd (Rat pharmacokinetic test; male, plasma, intravenous injection, 10 mg/kg, read-out: Vss): 0.53 L/kg; AUC0-t (Rat pharmacokinetic test; male, plasma, iv, 10 mg/kg, intravenous injection, 10 mg/kg, read-out: AUC0-t): 6760 ng·h/mL; bioavailability (Rat pharmacokinetic test; male, plasma, oral, gavage 20 mg/kg vs intravenous 10 mg/kg, dosage standardized, read-out: F (absolute bioavailability)): 68.3%; Cmax (Rat pharmacokinetic test; male, plasma, po, 20 mg/kg, gavage): 2380 ng/mL; AUC0-t (Rat pharmacokinetic test; male, plasma, po, 20 mg/kg, gavage, 20 mg/kg, read-out: AUC0-t): 9230 ng·h/mL; AUC(0-inf) (Rat pharmacokinetic test; [6]): 9230 ng·h/mL; MRT (Rat pharmacokinetic test; [6]): 2.6 h; Tmax (Rat pharmacokinetic test; [6]): 1 h; half-life (Rat pharmacokinetic test; [6]): 60 min

Now from value to compound, other results behind:

Row | inhibition at 1 µM [2] [%] | SMILES | Cell survival rate/% (RAW 264.7 cells; RAW 264.7, 0.5 μM) | Cell survival rate/% (RAW 264.7 cells; RAW 264.7, 5 μM) | Cell survival rate/% (RAW 264.7 cells; RAW 264.7, 50 μM) | inhibition at 10 µM (TNF-α secretion in PBMC) [%] | inhibition at 0.5 µM [3] [%] | inhibition at 5 µM [3] [%] | inhibition at 50 µM [3] [%] | inhibition at 1 µM (TNF-α secretion in PBMC) [%] | further results
9 | 19.5 | COc1cc2c(cc1OC)C(CCc1c[nH]c3ccccc13)N(CC(F)(F)F)CC2 (centres unmarked) [Compound B6, 1-(2-(1H-indol-3-yl)ethyl)-6,7-dimethoxy-2-(2,2,2-trifluoroethyl)-1,2,3,4-tetrahydroisoquinoline] | 117.3% | 87% | 95.3% | -23.2 | 8.2 | -7.1 | 67.5 | – | –
10 | 6.4 | COc1cc2c(cc1OC1CCCC1)C(CCc1c[nH]c3cc(C)ccc13)N(C=O)CC2 (centres unmarked) [Compound C3, 7-(cyclopentyloxy)-6-methoxy-1-(2-(6-methyl-1H-indol-3-yl)ethyl)-3,4-dihydroisoquinoline-2(1H)-formaldehyde] | 115.1% | 120.5% | 112.6% | 36.4 | -0.9 | 5.9 | 59.7 | – | –
11 | 16.4 | COc1cc2c(cc1OC)C(CCc1c[nH]c3ccccc13)N(C(=O)C1CCOCC1)CC2 (centres unmarked) [Compound B3, (1-(2-(1H-indol-3-yl)ethyl)-6,7-dimethoxy-3,4-dihydroisoquinoline-2(1H)-yl)(tetrahydro-2H-pyran-4-yl)ketone] | 97.7% | 113.9% | 79.6% | 60.2 | 4.4 | 10.8 | 62.5 | 33.3 | –
12 | 21.5 | COc1cc2c(cc1OC1CCCC1)C(CCc1c[nH]c3ccc(C)cc13)N(C=O)CC2 (centres unmarked) [Compound C2, 7-(cyclopentyloxy)-6-methoxy-1-(2-(5-methyl-1H-indol-3-yl)ethyl)-3,4-dihydroisoquinoline-2(1H)-formaldehyde] | 112.4% | 106.3% | 62.7% | 52.4 | -18.2 | -24.5 | 97.2 | 15.8 | –
13 | 30.7 | COc1cc2c(cc1OC)C(CCc1c[nH]c3ccccc13)N(C(=O)c1ccncc1)CC2 (centres unmarked) [Compound B1] | 78% | 74.9% | 78.8% | 58.5 | -2.4 | -17.8 | 67.9 | 39.8 | –
14 | 82.6 | COCC(=O)N1CCc2cc(OC)c(OC)cc2C1CCc1c[nH]c2ccccc12 (centres unmarked) [Compound B4, 1-(1-(2-(1H-indol-3-yl)ethyl)-6,7-dimethoxy-3,4-dihydroisoquinoline-2(1H)-yl)-2-methoxyethane-1-one] | 116.6% | 82.7% | 71.5% | 89.1 | -9.2 | -11 | 54.5 | 44.1 | IC50 [2]: 0.0003 mM; IC50 (TNF-α secretion in PBMC): 8.02 µM
15 | 10.8 | COc1cc2c(cc1OCc1ccccc1)C(CCc1c[nH]c3ccccc13)N(C=O)CC2 (centres unmarked) [Compound A5, 1-(2-(1H-indol-3-yl)ethyl)-7-(benzyloxy)-6-methoxy-3,4-dihydroisoquinoline-2(1H)-formaldehyde] | 118.7% | 120.8% | 111.3% | 23.8 | -0.2 | -8.1 | 79.3 | – | –
